Measured values from patent US20050250677A1, “Glycopeptide antibiotic derivatives” (priority 2002, published 2005).
Read-outs that look alike come from different tables or passages of the source.

Columns and labels:
human lymphocyte CEM = assay: Cytostatic activity assay, CEM cells; format: cell-based; settings: read-out: IC50 CEM (compound concentration required to inhibit tumor cell proliferation by 50%)
HIV-2(ROD) = assay: Inhibition of HIV-2 (ROD)-induced cytopathicity (giant cell formation) in CEM cells; format: cell-based; settings: read-out: EC50 HIV-2 (concentration required to inhibit HIV-induced giant cell formation by 50%); HIV-2, CEM cell cultures
Procedure: (§1) A variety of glycopeptide antibiotic derivatives of vancomycin, eremomycin and teicoplanin including their aglycon derivatives were evaluated for their inhibitory activity against HIV-1 (IIIB) and HIV-2(ROD) in CEM cell cultures.

[1] = test system: human lymphocyte Molt4/clone 8; assay: Cytostatic activity assay, Molt4/clone 8 cells; format: cell-based; settings: read-out: IC50 Molt4/C8 (compound concentration required to inhibit tumor cell proliferation by 50%)
murine leukemia L1210 = assay: Cytostatic activity assay, L1210 cells; format: cell-based; settings: read-out: IC50 L1210 (compound concentration required to inhibit tumor cell proliferation by 50%)
HIV-1 (IIIB) = assay: Inhibition of HIV-1 (IIIB)-induced cytopathicity (giant cell formation) in CEM cells; format: cell-based
Procedure: as §1

HEL cells [2] = settings: anti-VZV table
HEL cells [3] = settings: read-out: CC50 (HEL); HEL cells; anti-VZV table
VZV (wild-type strains) = assay: Anti-VZV assay (wild-type strains): virus-induced cytopathicity in HEL cell cultures; format: cell-based, varicella-zoster virus; settings: HEL cell cultures
[4] = read-out: EC50 HIV-1 (concentration required to inhibit HIV-induced giant cell formation by 50%), HIV-1, CEM cell cultures
[5] = VZV strain OKA, read-out: EC50 VZV (OKA)
[6] = VZV strain YS, read-out: EC50 VZV (YS)

| Structure (SMILES) | IC50 (human lymphocyte CEM) [µM] | EC50 (HIV-2(ROD)) [µM] | IC50 [1] [µM] | IC50 (murine leukemia L1210) [µM] | EC50 (HIV-1 (IIIB); HIV-1 (IIIB), CEM cell cultures, read-out: EC50 against HIV-1) [µM] | EC50 (HIV-1 (IIIB); [4]) [µM] | MTC (HEL) (HEL cells [2]) | CC50 (HEL cells [3]) [µM] | EC50 (VZV (wild-type strains); [5]) [µM] | EC50 (VZV (wild-type strains); [6]) [µM] |
| --- | --- | --- | --- | --- | --- | --- | --- | --- | --- | --- |
| CCCCCCCCCC[N+](C)(C)CCCNC(=O)C1NC(=O)C2NC(=O)C(NC(=O)C3NC(=O)C(CC(N)=O)NC(=O)C(NC(=O)C(CC(C)C)NC)C(O)c4ccc(c(Cl)c4)Oc4cc3cc(c4OC3OC(CO)C(O)C(O)C3OC3CC(C)(N)C(O)C(C)O3)Oc3ccc(cc3Cl)C2O)c2ccc(O)c(c2)-c2c(O)cc(O)cc21 (centres unmarked) [Compound 2] | 172 ± 15 | > 50 | 53 ± 1 | 60 ± 8 | 12 | 5.5 ± 0.7 |  |  |  |  |
| CCCCc1ccc(CNCc2c(O)cc3c(c2O)-c2cc(ccc2O)C2NC(=O)C4NC(=O)C(CC(N)=O)NC(=O)C(NC(=O)C(CC(C)C)NC)C(O)c5ccc(c(Cl)c5)Oc5cc4cc(c5OC4OC(CO)C(O)C(O)C4OC4CC(C)(N)C(O)C(C)O4)Oc4ccc(cc4)C(OC4CC(C)(N)C(O)C(C)O4)C(NC2=O)C(=O)NC3C(=O)NC)cc1 (centres unmarked) [Compound 3] | 95 ± 14.1 | 20 | 24 ± 18 | 22 ± 0.3 |  | 5.1 ± 3.3 |  |  |  |  |
| CCCCCCCCCC[N+](C)(C)CCCNCc1c(O)cc2c(c1O)-c1cc(ccc1O)C1NC(=O)C3NC(=O)C(CC(N)=O)NC(=O)C(NC(=O)C(CC(C)C)NC)C(O)c4ccc(c(Cl)c4)Oc4cc3cc(c4OC3OC(CO)C(O)C(O)C3OC3CC(C)(N)C(O)C(C)O3)Oc3ccc(cc3)C(OC3CC(C)(N)C(O)C(C)O3)C(NC1=O)C(=O)NC2C(=O)NCCCN(C)C (centres unmarked) [Compound 4] | 27 ± 7 | > 20 | 33 ± 5 | 16 ± 6 |  | 7 |  |  |  |  |
| CCCCc1ccc(CNC(=O)C2NC(=O)C3NC(=O)C(NC(=O)C4NC(=O)C(CC(N)=O)NC(=O)C(NC(=O)C(CC(C)C)NC)C(O)c5ccc(c(Cl)c5)Oc5cc4cc(c5OC4OC(CO)C(O)C(O)C4OC4CC(C)(N)C(O)C(C)O4)Oc4ccc(cc4)C3OC3CC(C)(N)C(O)C(C)O3)c3ccc(O)c(c3)-c3c(O)cc(O)cc32)cc1 (centres unmarked) [Compound 76] |  |  |  |  |  |  | ≧5-20 μM | 98 | 2.7 | > 2 |
| CCCCCCCNC(=O)C1NC(=O)C2NC(=O)C(NC(=O)C3NC(=O)C(CC(N)=O)NC(=O)C(NC(=O)C(CC(C)C)NC)C(O)c4ccc(c(Cl)c4)Oc4cc3cc(c4OC3OC(CO)C(O)C(O)C3OC3CC(C)(N)C(O)C(C)O3)Oc3ccc(cc3)C2OC2CC(C)(N)C(O)C(C)O2)c2ccc(O)c(c2)-c2c(O)cc(O)cc21 (centres unmarked) [Compound 77] |  |  |  |  |  |  | ≧20-50 μM | 129 | 7 | 5 |
| CCCCc1ccc(CNC2C(Oc3c4cc5cc3Oc3ccc(cc3Cl)C(O)C3NC(=O)C(NC(=O)C5NC(=O)C5NC(=O)C(Cc6ccc(cc6)O4)NC(=O)C(NC)c4ccc(O)c(c4)Oc4cc(O)c(Cl)c5c4)c4ccc(O)c(c4)-c4c(cc(O)c(CN5CCN(Cc6ccc(-c7ccccc7)cc6)CC5)c4O)C(C(=O)O)NC3=O)OC(C(=O)O)C(O)C2O)cc1 (centres unmarked) [Compound 93] | 81 | 22 |  |  |  | 3.5 |  |  |  |  |
| CCCCCCCCCC[N+](C)(C)CCCNCc1c(O)cc2c(c1O)-c1cc(ccc1O)C1NC(=O)C3NC(=O)C4NC(=O)C(Cc5ccc(cc5)Oc5cc3cc(c5OC3OC(C(=O)O)C(O)C(O)C3N)Oc3ccc(cc3Cl)C(O)C(NC1=O)C(=O)NC2C(=O)O)NC(=O)C(NC)c1ccc(O)c(c1)Oc1cc(O)c(Cl)c4c1 (centres unmarked) [Compound 95] | 92 | ≥ 20 |  |  |  | 3.5 |  |  |  |  |
| NC1C(=O)NC2Cc3ccc(c(Cl)c3)Oc3cc4cc(c3O)Oc3ccc(cc3Cl)C(O)C3NC(=O)C(NC(=O)C4NC(=O)C(NC2=O)c2cc(O)cc(c2)Oc2cc1ccc2O)c1ccc(O)c(c1)-c1c(O)cc(O)cc1C(C(=O)N1CCN(N=Cc2ccc(Cl)cc2)CC1)NC3=O (centres unmarked) [Compound 113] |  |  |  |  |  |  | ≧5-20 μM | > 50 | 0.68 | 0.42 |
| CN(Cc1ccc(-c2ccccc2)cc1)Cc1c(O)cc2c(c1O)-c1cc(ccc1O)C1NC(=O)C3NC(=O)C4NC(=O)C(Cc5ccc(c(Cl)c5)Oc5cc3cc(c5O)Oc3ccc(cc3Cl)C(O)C(NC1=O)C(=O)NC2C(=O)O)NC(=O)C(N)c1ccc(O)c(c1)Oc1cc(O)cc4c1 (centres unmarked) [Compound 117] |  |  |  |  |  |  | ≧5-80 μM | > 50 | 2.9 | 2.7 |
| NC1C(=O)NC2Cc3ccc(c(Cl)c3)Oc3cc4cc(c3O)Oc3ccc(cc3Cl)C(O)C3NC(=O)C(NC(=O)C4NC(=O)C(NC2=O)c2cc(O)cc(c2)Oc2cc1ccc2O)c1ccc(O)c(c1)-c1c(cc(O)c(CN2CCN(Cc4ccc(Cl)cc4)CC2)c1O)C(C(=O)O)NC3=O (centres unmarked) [Compound 119] |  |  |  |  |  |  | 20 to 400 µM | > 50 | 5 |  |
